# According to ChEMBL document CHEMBL6096689, “Structure-Guided Development of ClpP Agonists with Potent Therapeutic Activities against Staphylococcus aureus Infection” (J Med Chem, 2025):
# Active and inactive are the calls of the source. No cut-off for these calls is given here.
# Legend:
# [1] = system: Staphylococcus aureus; assay: microbe, parasite or virus in culture; assay type: functional; conditions: Newman, time 18 hrs
# Description: Antibacterial activity against Staphylococcus aureus Newman assessed as inhibition of visible growth of bacteria incubated for 18 hrs by absorbance based analysis
# [2] = system: Staphylococcus aureus; assay: microbe, parasite or virus in culture; assay type: functional; conditions: USA300, time 18 hrs
# Description: Antibacterial activity against methicillin-resistant Staphylococcus aureus USA300 assessed as inhibition of visible growth of bacteria incubated for 18 hrs by absorbance based analysis
# [3] = system: Staphylococcus aureus; assay: microbe, parasite or virus in culture; assay type: functional; conditions: NRS-1, time 18 hrs
# Description: Antibacterial activity against methicillin-resistant Staphylococcus aureus NRS-1 assessed as inhibition of visible growth of bacteria incubated for 18 hrs by absorbance based analysis
# [4] = system: Staphylococcus aureus; assay: microbe, parasite or virus in culture; assay type: functional; conditions: NRS-70, time 18 hrs
# Description: Antibacterial activity against methicillin-resistant Staphylococcus aureus NRS-70 assessed as inhibition of visible growth of bacteria incubated for 18 hrs by absorbance based analysis
# [5] = system: Staphylococcus aureus; assay: microbe, parasite or virus in culture; assay type: functional; conditions: NRS-108, time 18 hrs
# Description: Antibacterial activity against methicillin-resistant Staphylococcus aureus NRS-108 assessed as inhibition of visible growth of bacteria incubated for 18 hrs by absorbance based analysis
# [6] = system: Staphylococcus aureus; assay: microbe, parasite or virus in culture; assay type: functional; conditions: NRS-271, time 18 hrs
# Description: Antibacterial activity against methicillin-resistant Staphylococcus aureus NRS-271 assessed as inhibition of visible growth of bacteria incubated for 18 hrs by absorbance based analysis
# [7] = system: Staphylococcus aureus; assay: microbe, parasite or virus in culture; assay type: functional; conditions: time 18 hrs
# Description: Antibacterial activity against multidrug-resistant Staphylococcus aureus clinical isolate XJ009 assessed as inhibition of visible growth of bacteria incubated for 18 hrs by absorbance based analysis
# [8] = system: Staphylococcus aureus; assay: microbe, parasite or virus in culture; assay type: functional; conditions: time 18 hrs; remark: listed apart in the source
# Description: Antibacterial activity against multidrug-resistant Staphylococcus aureus clinical isolate XJ025 assessed as inhibition of visible growth of bacteria incubated for 18 hrs by absorbance based analysis
# [9] = system: Staphylococcus aureus; assay: microbe, parasite or virus in culture; assay type: functional; conditions: time 18 hrs; remark: listed apart in the source
# Description: Antibacterial activity against multidrug-resistant Staphylococcus aureus clinical isolate XJ049 assessed as inhibition of visible growth of bacteria incubated for 18 hrs by absorbance based analysis
# [10] = system: Staphylococcus aureus; assay: microbe, parasite or virus in culture; assay type: functional; conditions: time 18 hrs; remark: listed apart in the source
# Description: Antibacterial activity against multidrug-resistant Staphylococcus aureus clinical isolate XJ051 assessed as inhibition of visible growth of bacteria incubated for 18 hrs by absorbance based analysis
# [11] = system: Staphylococcus aureus; assay: microbe, parasite or virus in culture; assay type: functional; conditions: time 18 hrs; remark: listed apart in the source
# Description: Antibacterial activity against multidrug-resistant Staphylococcus aureus clinical isolate XJ052 assessed as inhibition of visible growth of bacteria incubated for 18 hrs by absorbance based analysis
# [12] = system: Staphylococcus aureus; assay: Antibacterial activity against oxacillin-resistant Staphylococcus aureus clinical isolate XJ049 infected in female ICR mouse peritonitis model assessed as mouse survival at 50 mg/kg, ip pre-infected for 1 hrs followed by compound addition and measured after 5 days relative to control; assay type: functional; conditions: 120 h, time 5 day
# [13] = target: T1, ATP-dependent Clp protease proteolytic subunit (Staphylococcus aureus (strain NCTC 8325), UniProt Q2G036); assay: Agonist activity at Staphylococcus aureus ClpP extracted from Escherichia coli BL21 (DE3) cells using alpha-casein as substrate assessed as substrate hydrolysis preincubated for 15 mins followed by substrate addition and measured after 2 hrs by SDS-PAGE analysis
# T1 sequence (Q2G036 whole entry): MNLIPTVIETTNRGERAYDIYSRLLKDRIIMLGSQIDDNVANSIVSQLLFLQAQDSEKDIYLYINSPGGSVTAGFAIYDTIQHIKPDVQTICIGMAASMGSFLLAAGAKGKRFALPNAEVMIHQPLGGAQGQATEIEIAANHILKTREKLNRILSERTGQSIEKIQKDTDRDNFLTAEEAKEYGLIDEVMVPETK
# [14] = Therapeutic index, ratio of IC50 for HEK293T/17 cells to MIC for Staphylococcus aureus Newman; assay type: toxicity, cell-based; conditions: human, read-out: TI
# [15] = target: T1, ATP-dependent Clp protease proteolytic subunit; assay: Agonist activity at Staphylococcus aureus ClpP extracted from Escherichia coli BL21 (DE3) cells using FITC-casein as substrate assessed as substrate hydrolysis preincubated for 60 mins followed by substrate addition and measured after 1 hrs by fluorescence based analysis
# [16] = target: T2, ATP-dependent Clp protease proteolytic subunit, mitochondrial (Homo sapiens, UniProt Q16740); assay: Agonist activity at human ClpP extracted from Escherichia coli Rosetta (DE3) cells using alpha-casein as substrate assessed as substrate hydrolysis preincubated for 15 mins followed by substrate addition and measured after 2 hrs by SDS-PAGE analysis
# T2 sequence (Q16740 whole entry): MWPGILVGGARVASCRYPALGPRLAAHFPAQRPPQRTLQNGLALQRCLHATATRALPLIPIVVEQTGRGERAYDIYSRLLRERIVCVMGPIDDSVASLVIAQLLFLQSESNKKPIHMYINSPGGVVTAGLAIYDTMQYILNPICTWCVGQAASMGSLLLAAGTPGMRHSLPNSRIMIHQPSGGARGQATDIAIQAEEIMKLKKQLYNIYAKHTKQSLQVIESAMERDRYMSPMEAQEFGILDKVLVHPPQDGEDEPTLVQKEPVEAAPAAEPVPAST
# [17] = target: ATP-dependent Clp protease proteolytic subunit (Escherichia coli (strain K12), UniProt P0A6G7); assay: Agonist activity at Escherichia coli ClpP using alpha-casein as substrate assessed as substrate hydrolysis preincubated for 15 mins followed by substrate addition and measured after 2 hrs by SDS-PAGE analysis
# ATP-dependent Clp protease proteolytic subunit (Escherichia coli (strain K12), UniProt P0A6G7), sequence (P0A6G7 whole entry): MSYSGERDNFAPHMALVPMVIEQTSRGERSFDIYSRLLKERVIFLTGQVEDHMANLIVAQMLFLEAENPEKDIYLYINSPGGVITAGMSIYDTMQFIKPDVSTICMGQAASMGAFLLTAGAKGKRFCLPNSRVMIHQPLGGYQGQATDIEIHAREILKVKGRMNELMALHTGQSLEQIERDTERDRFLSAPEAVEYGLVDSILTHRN
# [18] = Agonist activity at Lactobacillus acidophilus ClpP using alpha-casein as substrate assessed as substrate hydrolysis preincubated for 15 mins followed by substrate addition and measured after 2 hrs by SDS-PAGE analysis
# [19] = target: T3, ATP-dependent Clp protease proteolytic subunit (Staphylococcus aureus (strain NCTC 8325)) (UniProt Q2G036); assay: Induction of thermal stabilization of Staphylococcus aureus ClpP extracted from Escherichia coli BL21 (DE3) cells assessed as change in melting temperature at 10 uM incubated for 10 mins by DSF analysis
# T3 sequence (whole entry): T1 sequence (Q2G036 whole entry)
# [20] = target: T2, ATP-dependent Clp protease proteolytic subunit, mitochondrial; assay: Induction of thermal stabilization of human ClpP extracted from Escherichia coli Rosetta (DE3) cells assessed as change in melting temperature at 10 uM incubated for 10 mins by DSF analysis
# [21] = Therapeutic index, ratio of IC50 for HK-2 cells to MIC for Staphylococcus aureus Newman; assay type: toxicity, cell-based; conditions: human, read-out: TI
# [22] = Therapeutic index, ratio of IC50 for human ARH-77 cells to MIC for Staphylococcus aureus Newman; assay type: toxicity, cell-based; conditions: read-out: TI
# [23] = system: Staphylococcus aureus; assay: Antibacterial activity against Staphylococcus aureus USA300 infected in Zebrafish infection model assessed as increase in zebrafish survival at 5 to 25 mg/kg pre-infected for 1 hrs followed by compound addition and measured after 5 days; assay type: functional, organism-based; conditions: dose 5-25 mg/kg, time 5.0 day
# [24] = Cytotoxicity against HEK293T/17 cells by MTT assay; assay type: toxicity, cell-based; conditions: human
# [25] = Octanol/water partition coefficient, log P of the compound at pH 7.4 incubated for 24 hrs by LC-MS analysis; assay type: physicochemical
# [26] = system: Staphylococcus aureus; assay: Antibacterial activity against methicillin resistant Staphylococcus aureus NRS 119 by CLSI protocol based broth microdilution method; assay type: functional
# [27] = Therapeutic index, ratio of IC50 for HEK293T/17 cells to MIC for methicillin resistant Staphylococcus aureus NRS 119; assay type: toxicity, cell-based; conditions: human, read-out: TI
Structure (SMILES),MIC [1] [µg/mL],MIC [2] [µg/mL],MIC [3] [µg/mL],MIC [4] [µg/mL],MIC [5] [µg/mL],MIC [6] [µg/mL],MIC [7] [µg/mL],MIC [8] [µg/mL],MIC [9] [µg/mL],MIC [10] [µg/mL],MIC [11] [µg/mL],EC50 [13] [nM],selectivity ratio [14],EC50 [15] [nM],EC50 [16] [nM],EC50 [17] [nM],EC50 [18] [nM],ΔTm [19] [°C],ΔTm [20] [°C],selectivity ratio [21],further results
Cc1onc(-c2ccccc2)c1C(=O)N[C@@H]1C(=O)N2[C@@H]1SC(C)(C)[C@@H]2C(=O)O [OXACILLIN],0.13,0.25,64,0.25,0.25,32,> 128,32,> 128,> 128,> 128,–,–,–,–,–,–,–,–,–,survival at 50 mg/kg [12]: 56%
CC[C@H](C)[C@H]1C(=O)N([C@H](C)c2cccc3ccccc23)C[C@@H]2N(C(=O)NCCCC(F)(F)F)CCC(=O)N12,2,1,2,1,1,1,2,2,2,1,2,1200,25,720,31400,> 100000,> 100000,13,3,29,selectivity ratio [22]: 27; Activity [23]: Active
O=C1C2=C(CCN(Cc3ccccc3)C2)N2CCN=C2N1Cc1ccc(C(F)(F)F)cc1,0.002,0.5,1,0.5,0.5,0.25,0.5,0.5,0.5,0.5,1,1200,0.04,720,1900,3970,1140,15.9,23.5,0.06,IC50 [24]: 0.002 µg/mL; selectivity ratio [22]: 0.1
O=C1[C@H](Cc2cnc[nH]2)N2C(=O)CCN(C(=O)NCc3ccccc3)[C@H]2CN1Cc1cccc2ccccc12,> 128,–,–,–,–,–,–,–,–,–,–,500,–,–,–,–,–,–,–,–,logD at 24 h [25]: 3.09
C[C@@H]1C[C@H]2C(=O)OC[C@H](NC(=O)[C@H](Cc3cc(F)cc(F)c3)NC(=O)CCC3CCCCC3)C(=O)N3CCC[C@H]3C(=O)N3CCCC[C@H]3C(=O)N[C@@H](C)C(=O)N2C1,–,–,–,–,–,–,–,–,–,–,–,–,–,–,–,–,–,–,–,–,MIC [26]: 0.4 µg/mL; IC50 [24]: 3.7 µg/mL; selectivity ratio [27]: 9.3
